In test [1] the target is T1, Antigen Der p1 from excrement (Dermatophagoides pteronyssinus, UniProt P08176).
T1 construct: tissue Allergon AB, Ängelholm, Sweden; host or cells: house dust mite excrement
As to the kind of experiment: ELISA test of allergen-deactivating efficiency of the filter medium (house dust mite antigen). In kind it is biochemical. The conditions noted are these: text summary of Table 4; compared with the acids used according to the invention. From the text: In the examples, ELISA (enzyme-linked immunosorbent assay) is used as a method for measuring the deactivation abilities of different active ingredient compositions in respect of particular allergens.
The ELISA method can measure allergen concentrations by assessing color changes due to antigen-antibody reactions.
A carrier non-woven fabric of polyester spunbonded non-woven (weight per unit area 125 g/m^2) is finished in an allergen-deactivating manner with a mixture of lauric acid and citric acid. […]
The absorption of the microplate is established according to the specifications of the ELISA kit manufacturer using a microplate reading device at a wavelength of 405 nm and thus the allergen concentration (antigen content) of each sample is determined.
To determine the allergen-deactivating efficiency, each antigen concentration of the sample reaction solution is determined according to the specifications of the ELISA kit manufacturer using a microplate reading device at a wavelength of 405 nm.
Here, the starting concentration and the measured allergen concentration of the sample correspond to an antigen-specific concentration in ng/ml. […]
For orientation: ELISA stands for enzyme-linked immunosorbent assay.

Test [2] deals with Antigen Bet v1 from pollen. As to the kind of experiment: ELISA test of allergen-deactivating efficiency of the filter medium (birch pollen antigen). The format is biochemical. The conditions noted are these: summary of Table 1; acid on filter medium in dry state.
Description: A carrier non-woven fabric of polyester spunbonded non-woven (weight per unit area 125 g/m^2) is finished in an allergen-deactivating manner with a mixture of lauric acid and citric acid. The allergen-deactivating doping of the carrier non-woven is carried out by applying a mixture of the active ingredients in aqueous solution to the carrier non-woven and subsequently drying the now finished non-woven fabric to thereby obtain a sample for analysis.
The size of the sample used in the test is 10 mm×10 mm.
Allergen sources used and antigens to be tested: • a) Allergen house dust mite: Antigen Der p1 from excrement • b) Allergen birch pollen: Antigen Bet v1 from pollen
Allergen sources from Allergon AB, Ängelholm, Sweden were used. […]

T1 sequence (P08176 99-320): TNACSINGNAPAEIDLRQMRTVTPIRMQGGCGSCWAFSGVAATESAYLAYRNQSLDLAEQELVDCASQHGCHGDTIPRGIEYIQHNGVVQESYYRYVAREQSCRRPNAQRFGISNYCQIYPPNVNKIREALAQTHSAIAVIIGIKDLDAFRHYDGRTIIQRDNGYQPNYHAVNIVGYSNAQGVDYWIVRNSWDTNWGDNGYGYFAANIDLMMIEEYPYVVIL

On to `O=C([O-])[O-].[K+].[K+]` [potassium carbonate], for which, in test [1], the immunological effect result is “significantly lower than that of the acids used according to the invention”.
In the case of `O=C(O)CC(O)C(=O)O` (stereo not drawn) [malic acid], the allergen-eliminating effect result in test [2] is reported as “high allergen-eliminating effect”.
Regarding `O=C(O)CC(O)(CC(=O)O)C(=O)O` [citric acid], in test [2], the allergen-eliminating effect result is “high allergen-eliminating effect”.

These data come from patent publication US10315146B2, “Filter medium for deactivating allergens” (Carl Freudenberg KG, priority 2015, dated 2019).
